Test system: HEK293 cell line stably expressing ACE2 receptor infected by COVID-19 pseudovirus
Format: cell-based, human
Settings: positive control group, 10 μL of 100 μM solution per well, 48 h

CCN(CC)CCCC(C)Nc1ccnc2cc(Cl)ccc12 (stereo not shown) [chloroquine phosphate]
RLU/RLUc value (ratio of fluorescence value of test group to average fluorescence intensity of negative control group): 0.05±0.01
